Measured values taken from US12497396B2, “Nitrogen-containing heterocyclic derivatives, method therefor and application therefor as inhibitors of KRAS G12C for the treatment of cancers” (SHANGHAI HANSOH BIOMEDICAL CO., LTD., priority 2019, dated 2025).

Experiments:
[1] = tested on: NCI-H358 cells (KRAS G12C mutant cell line); experiment: Inhibition of NCI-H358 cell proliferation (CellTiter-Glo, 72 h); assay type: cell-based, human; settings: Homo sapiens
Text: (§1) As a preferred embodiment of the present disclosure, the detection method of NCI-H358 cell proliferation inhibitory activity and Mia PaCa-2 cell proliferation inhibitory activity is as follows: through cell culture, adding different concentrations of compound solutions to the cultured cells, continuing the culture for a period of time and measuring the cell proliferation; • further, the method of cell culture is: adjusting the cells to a suitable cell concentration with complete medium and spreading the cell suspension in well plates for culture; preferably, the culture conditions are 37° C., 5% CO2 incubator overnight; preferably, the cell suspension is spread in 96-well plates, 48-well plates, 24-well plates, 12-well plates or 6-well plates, more preferably 96-well plates; preferably, the suitable cell concentration is 1500-4000 cells/well, with 90 μL of cell suspension added to each well; • further, the compound solution is prepared with DMSO and may be further diluted with medium; preferably, the compound solution has a concentration gradient starting from 100 μM at 4-fold dilution, more preferably starting from 30 μM at 4-fold dilution, most preferably starting from 10 μM at 4-fold dilution; • further, the volume of the compound solution or solvent added to each well is 1-10 μL, preferably 10 μL; • further, after adding the compound solution, the conditions for continuing the culture are 37° C., 5% CO2 incubator; preferably, the culture time is 24-72 h, more preferably 72 h; • further, the method for measuring cell proliferation is MTT, CCK8, CellTiter-Glo; preferably the method is CellTiter-Glo; • further, the cell proliferation is read using a microplate reader, more preferably a BioTek Synergy H1 microplate reader.
(§2) When NCI-H358 or Mia PaCa-2 cells were cultured to the appropriate fusion level, the NCI-H358 or Mia PaCa-2 cells were collected, and the cells were adjusted to the appropriate cell concentration using a complete medium, and the cell suspension was spread in a 96-well plate, 90 μL per well, and placed in a 37° C., 5% CO2 incubator overnight; and compound solutions of different concentrations were prepared using DMSO and culture medium; and a solvent control was set, the compound solution was added to a 96-well plate, 10 μL per well, at 37° C. in a 5% CO2 incubator for 72 hours; CellTiter-Glo solution was added thereto and the mixture was mixed well by shaking, incubated for 10 min in the dark, and read by BioTek Synergy H1 microplate reader.
(§3) The luminescence signal values were used to calculate the inhibition rate, the concentration and the inhibition rate were fitted to a nonlinear regression curve using Graphpad Prism software, then the IC50 value was obtained.

[2] = tested on: Mia PaCa-2 cells (KRAS G12C mutant cell line); experiment: Inhibition of Mia PaCa-2 cell proliferation (CellTiter-Glo, 72 h); assay type: cell-based, human; settings: Homo sapiens
Text: as §1, §2, §3

human KRAS G12C protein = biological target: T1, human KRAS G12C protein (Homo sapiens, UniProt P01116, G12C); experiment: Thermal shift: melting temperature of KRAS G12C protein; assay type: binding; settings: for Tm (° C.): KRAS G12C protein 5.37 μM with compound 10 μM, 1 hour incubation; for ΔTm at 10 µM: compound 10 μM, Tm minus Tm of DMSO solvent control
T1 construct: purchased Beijing SinoBiological Co., Ltd. 12259-H07E2
Description: A solution containing […] (pH 7.5), 1 mM DTT, 5×SYPRO Orange and 150 mM NaCl was prepared as the experimental buffer, and a final concentration of 5.37 μM human KRAS G12C protein was added thereto. […] After incubating at room temperature in the dark for 1 hour, the PCR tube was put into the PCR instrument, QuantStudio Software v1.3 was opened, and the melting temperature of KRAS G12C protein in different treatment groups was detected by melt curve function (heating from 25° C. to 95° C., 0.03° C./s). The experimental data file of PCR instrument was imported into thermal shift software, and the melting temperature (Tm) of each treatment group was obtained, and the change value of melting temperature (Δ Tm) was obtained by subtracting the Tm of DMSO solvent control group.

in vivo = settings: male, Balb/c, mouse, po, 10 mg/kg
Description: 5 g of Hydroxyethyl cellulose (HEC, CMC-Na, viscosity: 800-1200 Cps) was weighed, dissolved in 1000 mL of purified water, and 10 g of Tween 80 was added. The mixture was mixed well to form a clear solution.
The embodiment compounds were weighed and added into 4-mL glass bottles, respectively, 2.4 mL of the solution was added, and ultrasound was performed for 10 minutes to obtain a colorless clear solution with a concentration of 1 mg/mL.
Balb/C mice, males; PO, after overnight fasting, respectively, at a dose of 10 mg/kg, administered in a volume of 10 mL/kg.
Blood samples were collected before administration and 0.083 h, 0.25 h, 0.5 h, 1 h, 2 h, 4 h, 6 h and 8 h after administration, the blood was placed in EDTA-2K tube, centrifuged at 4° C. 6000 rpm for 6 min to separate plasma, and stored at −80° C.; food was consumed 4 hours after drug administration.

in vitro = in vitro ADME
Description: (§4) Animal or human whole blood was collected, then the blood was put into a test tube containing anticoagulant, centrifuged at 3500 rpm for 10 min, and the upper layer of pale yellow plasma was collected. • 2), 10 μM of tested compound (m/M/V=C)
(§5) The compound was weighed, the stock solution was prepared with DMSO and the working solution was prepared with 100 mM phosphate buffer. • 3), 10 μM of positive control (1) Propantheline (Propantheline Mr=449.4 Da)
(§6) • 1) 285 μL of plasma and 15 μL of 10 μM compound (tested compound) were added in turn in a 96-well plate, and incubated at 37° C. • 2) 40 μL was taken out at 0, 15, 30, 60, 90, 120 min, respectively, and 160 μL of acetonitrile termination solution containing internal standard was added. • 3) After centrifugation (3500 rpm, 10 min), 50 μL of supernatant was taken out, and then diluted with 50 μL DDH2O and injected to LC-MS/MS.
(§7) • Instrument: Shimadzu LC-20 AD • Chromatographic column: phenomenex Gemiu® C18 (50*4.6 mm, 5 μM particle size); • mobile phase: A: acetonitrile, B: 0.1% formic acid solution […], 2.0-2.1 min: 90% A→5% A; flow rate: 0.8 mL/min; running time: 5.0 min; injection volume: 5 μL.
(§8) • Instrument: API4000 Liquid Chromatography-Mass Spectrometry, AB, USA; • the ion source was electrospray ionization source (ESI); • the temperature of dry gas (N2) was 500° C.; • electrospray voltage was 5500V; • the detection method was positive ion detection; • the scanning mode was selective response monitoring (MRM). • the scanning time was 0.1 s.

[3] = Plasma stability, rat plasma; assay type: in vitro ADME; settings: rat plasma, 37° C.
Description: as §4, §5, §6, §7, §8

[4] = Plasma stability, dog plasma; assay type: in vitro ADME; settings: dog plasma, 37° C.
Description: as §4, §5, §6, §7, §8

[5] = tested on: human lung cancer NCI-H358 cell xenograft; experiment: In vivo pharmacodynamics on human lung cancer NCI-H358 cell xenograft tumor model; parameters: species or system BALB/c nude mice
Description: • BALB/c nude mice, 6-8 weeks old, female, purchased from Shanghai Xipuer-Bikai Experimental Animal Co., Ltd. 6.3.2 Cell Culture and Cell Suspension Preparation • 1) MiaPaca-2 cells were taken out from the cell bank and resuscitated with DMEM medium (DMEM+10% FBS), the resuscitated cells were placed in a cell culture flask (labeled with cell type, date, name of cultured person, etc.) and cultured in a CO2 incubator (incubator temperature was 37° C., CO2 concentration was 5%) (the method of resuscitating NCI-H358 cells was the same as MiaPaca-2 cells in test embodiment 5, and the culture medium was changed to RPMI-1640 medium). • 2) Passage was conducted every three to five days, and the cells was continued to be cultured in CO2 incubator after passage. The process was repeated until the cell count meets the in vivo pharmacodynamic requirements. • 3) MiaPaca-2 cells were collected and counted by automatic cell counter, according to the counting results, the cells were re-suspended with PBS and Matrigel (ratio was 1:1) to make cell suspension (cell density was 5×10^7/mL), then placed in a ice box for use (NCI-H358 cells were re-suspended with PBS without adding Matrigel, cell density was 1×10^8/mL). 6.3.3 Sample Preparation: • 1) Solvent: solvent (0.5% CMC-Na+1% Tween 80), storage condition: 4° C.
0.5 g of CMC-Na was weighted, dissolved in ddH2O, then 1.0 mL of Tween 80 was added and the mixture was stirred to mix well, and the volume was finally set to 100 mL. • 2) Compound to be tested (10 mg/kg) was prepared:
8.42 mg of AMG510 compound was weighted, 8.260 mL of solvent was added, a uniform solution was obtained by ultrasound, vortexing and stirring.
7.81 mg of embodiment compound 165-1 was weighted, 7.654 mL of solvent was added, a uniform solution was obtained by ultrasound, vortexing and stirring.
• 1) Before inoculation, nude mice were labeled with disposable universal ear tags of rats and mice; • 2) when inoculating, the cell suspension was mixed well, 0.1-1 mL cell suspension was extracted with a 1 mL syringe, bubbles were removed, and then the syringe was put on an ice bag for later use; • 3) the nude mice was held with left hand, the right back of nude mice near the right shoulder (inoculation site) was disinfected with 75% alcohol, and inoculation was started after 30 seconds; • 4) the experimental nude mice were inoculated in turn (each mouse was inoculated with 0.1 mL of cell suspension); 6.3.4 Tumor-Bearing Mouse were Measured, Grouped, and Administered: • 1) According to the tumor growth, the tumor was measured on the 18th day after inoculation, and the tumor size was calculated. tumor volume (mm^3)=length (mm)×width (mm)×width (mm)/2 Tumor volume calculation: • 2) The tumor-bearing mice were grouped according to their body weight and tumor size using a randomized grouping method. • 3) According to the grouping results, the administration of the test drug was started (administration method: oral administration; administration dose: 10 mg/kg; administration volume: 10 mL/kg; administration frequency: once a day; administration period: 21 days; solvents: 0.5% CMC/1% Tween 80). • 4) The tumor was measured and weighed twice a week after the test drug was started to be given. • 5) After the experiment, all animals were euthanized. • 6) Data was processed with software such as Excel. […]

Row | Structure (SMILES) | IC50 [1] | IC50 [2] | Tm (° C.) (human KRAS G12C protein) | ΔTm at 10 µM (human KRAS G12C protein) | Residual rate (%) 0 min [3] | Residual rate (%) 15 min [3] | Residual rate (%) 30 min [3] | Residual rate (%) 60 min [3] | Residual rate (%) 120 min [3] | Residual rate (%) 0 min [4] | Residual rate (%) 15 min [4] | Residual rate (%) 30 min [4] | Residual rate (%) 60 min [4] | Residual rate (%) 120 min [4] | other results
1 | C=CC(=O)N1C[C@H](C)N(c2nc(=O)n(-c3c(SC)ccnc3C(C)C)c3nc(-c4c(O)cccc4F)c(F)cc23)C[C@H]1C [Embodiment 114, 4-((2S, 5R)-4-acryloyl-2,5-dimethylpiperazin-1-yl)-6-fluoro-7-(2-fluoro-6-hydroxyphenyl)-1-(2-isopropyl-4-(methylthio)pyridin-3-yl) pyrido [2,3-d] pyrimidin-2 (1H)-one] | 50 nM | 43 nM | 57.2 °C | 8.5 °C |  |  |  |  |  |  |  |  |  |  | AUC(0-inf) (in vivo): 1290 ng·h/mL; Cmax (in vivo): 1530 ng/mL; MRT (in vivo): 42 min; Tmax (in vivo): 15 min; half-life (in vivo): 36 min
2 | C=CC(=O)N1CCN(c2nc(=O)n(-c3c(C)ccnc3C(C)C)c3nc(-c4c(O)cccc4F)c(F)cc23)[C@@H](C)C1 [AMG 510, reference compound] |  |  |  |  | 100.00% | 100.85% | 93.03% | 77.54% | 56.77% | 100.00% | 98.88% | 101.14% | 93.43% | 91.92% | Residual rate (%) 0 min (in vitro; human, 0.5 μM): 100.00%; Residual rate (%) 15 min (in vitro; human, 0.5 μM): 93.77%; Residual rate (%) 30 min (in vitro; human, 0.5 μM): 85.72%; Residual rate (%) 60 min (in vitro; human, 0.5 μM): 82.51%; Residual rate (%) 120 min (in vitro; human, 0.5 μM): 64.44%; Residual rate (%) 0 min (in vitro; mouse plasma, 37° C.): 100.00%; Residual rate (%) 15 min (in vitro; mouse plasma, 37° C.): 97.50%; Residual rate (%) 30 min (in vitro; mouse plasma, 37° C.): 82.58%; Residual rate (%) 60 min (in vitro; mouse plasma, 37° C.): 81.82%; Residual rate (%) 120 min (in vitro; mouse plasma, 37° C.): 63.23%
3 | C=CC(=O)N1CCN(c2nc(=O)n(-c3c(C)ccnc3C(C)C)c3nc(-c4c(O)cccc4F)c(F)cc23)[C@@H](C)C1 [AMG-510, reference compound] |  |  |  |  |  |  |  |  |  |  |  |  |  |  | TGI (%) Day 15 ([5]; Day 15, 10 mpk oral once a day): 38.02%; tumor volume (mm^3, Mean ± SD) Day 15 ([5]; Day 15, 10 mpk oral once a day): 324 ± 204 mm^3; ΔT/ΔC(%) Day 15 ([5]; Day 15, 10 mpk oral once a day): 61.98%; tumor volume (mm^3, Mean ± SD) Day 0 ([5]; baseline Day 0, 10 mpk oral once a day): 202 ± 72 mm^3
4 | C=CC(=O)N1CCN(c2nc(=O)n(-c3c(C)ccnc3C(C)C)c3nc(-c4c(F)cccc4S(C)(=O)=O)c(F)cc23)[C@@H](C)C1 [Embodiment 77, (S)-4-(4-acryloyl-2-methylpiperazin-1-yl)-6-fluoro-1-(2-isopropyl-4-methylpyridin-3-yl)-7-(2-(methylsulfonyl-6-fluoro)phenyl) pyrido [2,3-d] pyrimidin-2 (1H)-one] | 117 nM | 120 nM | 60.4 °C | 9.8 °C |  |  |  |  |  |  |  |  |  |  | 
5 | CC[C@H](C)C(=O)O[C@H]1C[C@@H](C)C=C2C=C[C@H](C)[C@H](CC[C@@H]3C[C@@H](O)CC(=O)O3)[C@H]21 [Lovastatin, reference compound] |  |  |  |  | 100.00% | 21.15% | 1.77% | 0.36% | 0.30% | 100.00% | 95.25% | 95.45% | 75.66% | 36.25% | t1/2 [3]: 6.69 min; t1/2 [4]: 80.22 min
